# Reference: patent US10865384B2, “2,4,5-tri-substituted azole-based casein kinase 1 inhibitors as inducers for cardiomyogenesis” (AGENCY FOR SCIENCE, TECHNOLOGY AND RESEARCH, priority 2014, dated 2020)
# Experiments:
# p38α MAPK = settings: read-out: IC50 (published by companies), p38α MAPK inhibition; cited from earlier work
# CK1 = settings: read-out: IC50 (published by companies), CK1 inhibition; cited from earlier work
# PKD1 = PKD1 (Homo sapiens (Human), UniProt Q15139); settings: read-out: IC50 (published by companies), PKD1 inhibition; cited from earlier work
# p38β MAPK = p38β MAPK (Homo sapiens (Human), UniProt Q15759); settings: read-out: IC50 (published by companies), p38β MAPK inhibition; cited from earlier work
# H3 hESCs Nkx2.5eGFP/w = assay: High yield cardiomyocyte differentiation after 24 h CHIR99021 pre-treatment; format: cell-based, human
# [1] = CHIR99021 only, CHIR99021 with SB203580 (days 1-8), CHIR99021 with IM-31 (days 4-8)
# Chain of p38β MAPK (Q15759 whole entry): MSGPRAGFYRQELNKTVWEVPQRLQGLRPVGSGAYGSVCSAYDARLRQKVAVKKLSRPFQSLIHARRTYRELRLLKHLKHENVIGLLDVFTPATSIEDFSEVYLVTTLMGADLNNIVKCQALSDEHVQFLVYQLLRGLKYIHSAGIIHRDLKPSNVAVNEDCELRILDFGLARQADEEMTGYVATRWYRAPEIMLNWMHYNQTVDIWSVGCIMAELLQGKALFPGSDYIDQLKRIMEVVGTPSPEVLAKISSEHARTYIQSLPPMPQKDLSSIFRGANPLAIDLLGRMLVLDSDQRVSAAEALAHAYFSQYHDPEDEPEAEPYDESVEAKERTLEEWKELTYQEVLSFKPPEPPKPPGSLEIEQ
# Chain of PKD1 (Q15139 whole entry): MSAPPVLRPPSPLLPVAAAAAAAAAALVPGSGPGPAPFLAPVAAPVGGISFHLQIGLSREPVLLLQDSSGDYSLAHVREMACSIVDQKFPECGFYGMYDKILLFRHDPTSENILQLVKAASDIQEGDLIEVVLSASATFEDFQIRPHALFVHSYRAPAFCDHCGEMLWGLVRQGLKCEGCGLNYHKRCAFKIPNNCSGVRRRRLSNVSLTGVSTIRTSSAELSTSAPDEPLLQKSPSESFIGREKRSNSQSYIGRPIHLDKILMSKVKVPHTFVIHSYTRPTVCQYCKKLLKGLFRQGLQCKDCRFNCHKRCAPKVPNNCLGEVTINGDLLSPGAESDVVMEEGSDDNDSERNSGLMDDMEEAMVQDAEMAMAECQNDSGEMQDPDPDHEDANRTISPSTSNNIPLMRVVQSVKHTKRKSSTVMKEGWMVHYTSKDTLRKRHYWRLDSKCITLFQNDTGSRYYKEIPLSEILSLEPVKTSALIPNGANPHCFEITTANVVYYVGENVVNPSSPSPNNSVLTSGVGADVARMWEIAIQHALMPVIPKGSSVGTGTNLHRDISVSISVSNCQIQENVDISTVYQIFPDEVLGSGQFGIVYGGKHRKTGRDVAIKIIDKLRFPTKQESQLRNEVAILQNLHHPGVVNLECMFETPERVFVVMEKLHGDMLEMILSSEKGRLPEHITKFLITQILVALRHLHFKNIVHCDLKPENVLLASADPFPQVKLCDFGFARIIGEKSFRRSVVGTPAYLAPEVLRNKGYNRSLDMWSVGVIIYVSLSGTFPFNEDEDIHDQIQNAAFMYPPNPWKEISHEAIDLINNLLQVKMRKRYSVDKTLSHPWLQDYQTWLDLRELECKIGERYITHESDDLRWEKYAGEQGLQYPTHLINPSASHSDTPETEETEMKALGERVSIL
SMILES,IC50 (p38α MAPK) [nM],IC50 (CK1) [nM],IC50 (PKD1) [nM],IC50 (p38β MAPK) [nM],Average beating frequency (H3 hESCs Nkx2.5eGFP/w; [1]),Beat count (percentage of EBs contracting within 10 s) (H3 hESCs Nkx2.5eGFP/w; [1]),Beating area (H3 hESCs Nkx2.5eGFP/w; [1]) [mm^2],"Nkx2.5 population (H3 hESCs Nkx2.5eGFP/w; day 11, flow cytometry, 3 μM CHIR99021 for 24 h) [%]"
NC(=O)c1ccc(-c2nc(-c3ccc4c(c3)OCCO4)c(-c3ccccn3)[nH]2)cc1 [Compound D4476],5800,[…],9100,,,,,
Cc1c[nH]c(-c2cnc(NCCNc3ccc(C#N)cn3)nc2-c2ccc(Cl)cc2Cl)n1 [CHIR99021],10,,,6.7,25-30 beats per minute,over 75%,> 5,30
